Assays:
Assay type in all cases: physicochemical
[1] = Evaluation of storage stability of ink (40° C. for 3 months, insoluble matter and clogging); settings: recording liquid stored at 40° C. for 3 months; insoluble matter and clogging
Description: (§1) The prepared ink was filled in an ink cartridge for a piezo-type ink-jet printer EM-930C (manufactured by Seiko Epson). The printing was performed with this printer, and the light fastness was evaluated. Further, the storage stability of the ink was evaluated.
(C) Evaluation of Storage Stability of Ink:
After a recording liquid was stored at 40° C. for 3 months, it was observedwhether or not an insoluble matterwas precipitated, and whether or not clogging occurred after continuous recording with the foregoing printer for a long period of time.

[2] = Evaluation of light fastness-1 (OD value of printed portion after 100 hours xenon fadeometer); settings: ink prepared as in Example 1 from the salt named in the row; OD value of printed portion after 100 hours xenon fadeometer
Description: as §1
(A)-1 Evaluation of Light Fastness-1
Printing density (OD value) was measured after irradiating a printed portion with light for 100 hours using a xenon fadeometer (manufactured by Suga Shikenki) to evaluate the light fastness.

[3] = Evaluation of moisture resistance (image-recorded paper at 40° C. and humidity 85%, visual observation); settings: image-recorded paper at 40° C. and humidity 85%, visually observed
[4] = Evaluation of light fastness-2 (OD value of printed portion after 400 hours xenon fadeometer); settings: ink prepared as in Example 1 from the salt named in the row; OD value of printed portion after 400 hours xenon fadeometer
Description: as §1
(A)-2 Evaluation of Light Fastness-2
Printing density (OD value) was measured after irradiating a printed-portion with light for 400 hours using axenon fadeometer (manufactured by Suga Shikenki), and the light fastness was evaluated.

Row | SMILES | (C) storage stability [1] | (A)-1 light fastness-1 [2] | (B) moisture resistance [3] | (A)-2 light fastness-2 [4]
1 | Cc1c(N=Nc2cc(C(=O)O)ccc2C(=O)O)c(O)n(CCCCCCNc2nc(Cl)nc(NCCCCCCn3c(O)c(N=Nc4cc(C(=O)O)ccc4C(=O)O)c(C)c(C#N)c3=O)n2)c(=O)c1C#N [Compound No. 246] | Δ | ⊚ | ⊚ | Δ
2 | CCc1c(N=Nc2cc(C(=O)O)ccc2C(=O)O)c(O)n(CCn2c(=O)c3cc4c(=O)n(CCn5c(O)c(N=Nc6cc(C(=O)O)ccc6C(=O)O)c(CC)c(C#N)c5=O)c(=O)c4cc3c2=O)c(=O)c1C#N [Compound 335] | ◯ | ⊚ | ⊚ | ⊚⊚
3 | CCCCc1c(N=Nc2cc(C(=O)O)ccc2C(=O)O)c(O)n(CCNc2nc(Cl)nc(NCCn3c(O)c(N=Nc4cc(C(=O)O)ccc4C(=O)O)c(CCCC)c(C#N)c3=O)n2)c(=O)c1C#N [Compound 278] | Δ | ⊚ | ⊚ | ◯
4 | CCc1c(N=Nc2cc(C(=O)O)ccc2C(=O)O)c(O)n(CCNc2nc(NCCn3c(O)c(N=Nc4cc(C(=O)O)ccc4C(=O)O)c(CC)c(C#N)c3=O)nc(NCCn3c(O)c(N=Nc4cc(C(=O)O)ccc4C(=O)O)c(CC)c(C#N)c3=O)n2)c(=O)c1C#N [Compound 273] | ◯ | ⊚ | ⊚ | ⊚
5 | Cc1c(N=Nc2cc(C(=O)O)ccc2C(=O)O)c(O)n(CCCCCCNC(=O)c2cc(C(=O)O)c(C(=O)NCCCCCCn3c(O)c(N=Nc4cc(C(=O)O)ccc4C(=O)O)c(C)c(C#N)c3=O)cc2C(=O)O)c(=O)c1C#N [Compound 281] | ◯ | ⊚ | ⊚ | ◯
6 | N#Cc1c(C(F)(F)F)c(N=Nc2cc(C(=O)O)ccc2C(=O)O)c(O)n(CCNC(=O)c2cc(C(=O)O)c(C(=O)NCCn3c(O)c(N=Nc4cc(C(=O)O)ccc4C(=O)O)c(C(F)(F)F)c(C#N)c3=O)cc2C(=O)O)c1=O [Compound 291] | ◯ | ⊚ | ⊚ | ⊚⊚
7 | CCc1c(N=Nc2cc(C(=O)O)ccc2C(=O)O)c(O)n(CCNC(=O)c2cc(C(=O)NCCn3c(O)c(N=Nc4cc(C(=O)O)ccc4C(=O)O)c(CC)c(C#N)c3=O)c(C(=O)O)cc2C(=O)O)c(=O)c1C#N [Compound 297] | ◯ | ⊚ | ⊚ | ⊚
8 | CCCCc1c(N=Nc2cc(C(=O)O)ccc2C(=O)O)c(O)n(CCNc2nc(NCCn3c(O)c(N=Nc4cc(C(=O)O)ccc4C(=O)O)c(CCCC)c(C#N)c3=O)nc(NCCn3c(O)c(N=Nc4cc(C(=O)O)ccc4C(=O)O)c(CCCC)c(C#N)c3=O)n2)c(=O)c1C#N [Compound 271] | ◯ | ⊚ | ⊚ | ⊚
9 | Cc1c(N=Nc2cc(C(=O)O)ccc2C(=O)O)c(O)n(CCNc2nc(O)nc(NCCn3c(O)c(N=Nc4cc(C(=O)O)ccc4C(=O)O)c(C)c(C#N)c3=O)n2)c(=O)c1C#N [Compound 294] | Δ | ⊚ | ⊚ | ◯
10 | CCc1c(N=Nc2cc(C(=O)O)ccc2C(=O)O)c(O)n(CCNC(=O)c2cc(C(=O)O)c(C(=O)NCCn3c(O)c(N=Nc4cc(C(=O)O)ccc4C(=O)O)c(CC)c(C#N)c3=O)cc2C(=O)O)c(=O)c1C#N [Compound 283] | ◯ | ⊚ | ⊚ | ⊚⊚
11 | Cc1c(N=Nc2cc(C(=O)O)ccc2C(=O)O)c(O)n(CCNC(=O)c2cc(C(=O)NCCn3c(O)c(N=Nc4cc(C(=O)O)ccc4C(=O)O)c(C)c(C#N)c3=O)c(C(=O)O)cc2C(=O)O)c(=O)c1C#N [Compound 296] | ◯ | ⊚ | ⊚ | ⊚
12 | Cc1c(N=Nc2cc(C(=O)O)ccc2C(=O)O)c(O)n(CCCNc2nc(Cl)nc(NCCCn3c(O)c(N=Nc4cc(C(=O)O)ccc4C(=O)O)c(C)c(C#N)c3=O)n2)c(=O)c1C#N [Compound 247] | ◯ | ⊚ | ⊚ | ◯
13 | Cc1c(N=Nc2cc(C(=O)O)ccc2C(=O)O)c(O)n(CCCCCCNC(=O)c2cc(C(=O)NCCCCCCn3c(O)c(N=Nc4cc(C(=O)O)ccc4C(=O)O)c(C)c(C#N)c3=O)c(C(=O)O)cc2C(=O)O)c(=O)c1C#N [Compound 299] | ◯ | ⊚ | ⊚ | ◯
14 | Cc1c(N=Nc2c(C(=O)O)cccc2C(=O)O)c(O)n(CCNc2nc(NCCn3c(O)c(N=Nc4c(C(=O)O)cccc4C(=O)O)c(C)c(C#N)c3=O)nc(NCCn3c(O)c(N=Nc4c(C(=O)O)cccc4C(=O)O)c(C)c(C#N)c3=O)n2)c(=O)c1C#N [Compound 267] | Δ | ⊚ | ⊚ | ◯
15 | Cc1c(N=Nc2cc(C(=O)O)ccc2C(=O)O)c(O)n(CCCCCCNc2nc(NCCCCCCn3c(O)c(N=Nc4cc(C(=O)O)ccc4C(=O)O)c(C)c(C#N)c3=O)nc(NCCCCCCn3c(O)c(N=Nc4cc(C(=O)O)ccc4C(=O)O)c(C)c(C#N)c3=O)n2)c(=O)c1C#N [Compound 264] | Δ | ⊚ | ⊚ | ◯
16 | Cc1c(N=Nc2cc(C(=O)O)ccc2C(=O)O)c(O)n(CCNc2nc(NCCn3c(O)c(N=Nc4cc(C(=O)O)ccc4C(=O)O)c(C)c(C#N)c3=O)nc(NCCn3c(O)c(N=Nc4cc(C(=O)O)ccc4C(=O)O)c(C)c(C#N)c3=O)n2)c(=O)c1C#N [Compound 262] | Δ | ⊚ | ⊚ | ◯
17 | CCc1c(N=Nc2cc(C(=O)O)ccc2C(=O)O)c(O)n(CCCNC(=O)c2cc(C(=O)O)c(C(=O)NCCCn3c(O)c(N=Nc4cc(C(=O)O)ccc4C(=O)O)c(C)c(C#N)c3=O)cc2C(=O)O)c(=O)c1C#N [Compound 280] | ◯ | ⊚ | ⊚ | ⊚
18 | Cc1c(N=Nc2cc(C(=O)O)ccc2C(=O)O)c(O)n(CCNC(=O)c2cc(C(=O)O)c(C(=O)NCCn3c(O)c(N=Nc4cc(C(=O)O)ccc4C(=O)O)c(C)c(C#N)c3=O)cc2C(=O)O)c(=O)c1C#N [Compound No. 279] | ◯ | ⊚ | ⊚ | ⊚
19 | Cc1c(N=Nc2cc(C(=O)O)ccc2C(=O)O)c(O)n(CCCNc2nc(NCCn3c(O)c(N=Nc4cc(C(=O)O)ccc4C(=O)O)c(C)c(C#N)c3=O)nc(NCCn3c(O)c(N=Nc4c(C(=O)O)cccc4C(=O)O)c(C)c(C#N)c3=O)n2)c(=O)c1C#N [Compound 270] | Δ | ⊚ | ⊚ | ⊚
20 | Cc1c(N=Nc2cccc(C(=O)O)c2C(=O)O)c(O)n(CCNc2nc(NCCn3c(O)c(N=Nc4cccc(C(=O)O)c4C(=O)O)c(C)c(C#N)c3=O)nc(NCCn3c(O)c(N=Nc4cccc(C(=O)O)c4C(=O)O)c(C)c(C#N)c3=O)n2)c(=O)c1C#N [Compound 268] | Δ | ⊚ | ⊚ | ◯
21 | CCc1c(N=Nc2cc(C(=O)O)ccc2C(=O)O)c(O)n(CCNc2nc(Cl)nc(NCCn3c(O)c(N=Nc4cc(C(=O)O)ccc4C(=O)O)c(CC)c(C#N)c3=O)n2)c(=O)c1C#N [Compound 251] | Δ | ⊚ | ⊚ | ⊚
22 | Cc1c(N=Nc2cc(C(=O)O)ccc2C(=O)O)c(O)n(CCS(=O)(=O)O)c(=O)c1C#N [compound 136] | ◯ and Δ | ⊚ | Δ and ◯ | ⊚ and Δ and ◯
